Test results from publication doi:10.1101/572578v1 (biorxiv, 2019).

Tests used:
Test in all cases: intrinsic fluorescence quenching titration
Format in all cases: binding
COMMD1 [1] = target: COMMD1 (Homo sapiens, UniProt Q8N668)
COMMD1 [2] = target: COMMD1 (Homo sapiens, UniProt Q8N668, T174M)
COMMD1 [3] = target: COMMD1 (Homo sapiens, UniProt Q8N668, K167E/K173E)
COMMD1 (Homo sapiens, UniProt Q8N668, K167E/K173E), sequence (Q8N668 whole entry K167E/K173E): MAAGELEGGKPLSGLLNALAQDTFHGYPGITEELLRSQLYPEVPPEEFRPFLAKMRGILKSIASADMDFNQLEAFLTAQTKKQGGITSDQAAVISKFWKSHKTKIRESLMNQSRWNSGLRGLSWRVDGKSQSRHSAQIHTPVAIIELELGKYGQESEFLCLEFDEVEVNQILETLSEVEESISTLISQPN

COMMD1 (Homo sapiens, UniProt Q8N668), sequence (Q8N668 whole entry): as the sequence (Q8N668 whole entry K167E/K173E) above, with E167K, E173K counted along it
COMMD1 (Homo sapiens, UniProt Q8N668, T174M), sequence (Q8N668 whole entry T174M): as the sequence (Q8N668 whole entry K167E/K173E) above, with E167K, E173K, T174M counted along it

- Kd (COMMD1 [1]): 40.4 nM
- Kd (COMMD1 [2]): 62.5 nM
- Kd (COMMD1 [3]): 284 nM
SMILES: CCCCCC(=O)OC[C@H](COP(=O)(O)O[C@@H]1[C@H](O)[C@H](O)[C@@H](OP(=O)(O)O)[C@H](OP(=O)(O)O)[C@H]1O)OC(=O)CCCCC [PtdIns(4,5)P2]
